# Results reported in patent US9877962B2, “Piperazinyl derivatives for the treatment of cancer” (priority 2011, dated 2018).
# pEC50, pIC50: −log10 of the molar value. Where two headings read alike, the source gives them in different places.
# Experiments:
# Format in all cases: cell-based, human
# MCF-7/adr = assay: Cytotoxicity test (ViaLight Plus cell proliferation) on MCF-7/adr; settings: adriamycin-resistant line, 72 hours' incubation, cell viability vs 0.5% DMSO control; for pIC50: Homo sapiens, NCI/ADR-RES, 72 h, read-out: EC50 MCF-7/adr
# Text: (§1) The effects of the compounds of the invention on the proliferation of cancer cells were studied on different human cancer cell lines of different tissue origin (MCF-7: breast cancer, MCF-7/adr adriamycin-resistant breast cancer, HL-60: acute promyelocytic leukaemia, HL-60/R10: doxorubicin-resistant acute promyelocytic leukaemia, HT29: colon adenocarcinoma, Mia Paca2: pancreatic tumour, Panc-1: pancreatic exocrine tumour, SK-OV-3: cisplatin- and adriamycin resistant ovarian cancer). The cancer cells used for this study were incubated at 37° C. in the presence of one of the compounds of the invention added to the culture medium at different concentrations.
# (§2) The cancer cell lines were obtained from ATCC (American Type Culture Collection) for MCF-7, from Hôpital de la Pitié Salpetrière for MCF-7/adr and from Oncodesign (Dijon, France) for HL-60, HL-60/R10, HT29, MiaPaCa2, Panc-1 and SK-OV-3. They were cultured in RPMI 1640 medium containing 2 mM L-Glutamine supplemented with 10% foetal calf serum (Lonza; Verviers, Belgium). All the cell lines were held in culture at 37° C. in a humid atmosphere containing 5% CO2. Cell proliferation was assessed using the ViaLight® Plus Assay Kit (Lonza; Verviers, Belgium) following the manufacturer's instructions. The cells were seeded in 96-well culture plates compatible with luminescence read-off (white plates with transparent bottom) in a proportion of 5 000 to 10 000 cells per well in 100 μl of culture medium. After a pre-incubation time of 24 hours at 37° C., the compounds of the invention dissolved in dimethylsulfoxide (DMSO) were individually added to each well in a proportion of 0.5 μl per well. After 72 hours' incubation at 37° C. in a humid atmosphere containing 5% CO2, 50 μl of lysis buffer were added to each well and 15 minutes later 100 μl of ATP measuring agent were added. The plates were read under a luminometer to evaluate cell viability. The data obtained was processed by computer to obtain the EC50 value i.e. the concentration value of each of the compounds which induces 50% cell viability compared with a control value (0.5% DMSO alone).
# HL-60 = assay: Cytotoxicity test (ViaLight Plus cell proliferation) on HL-60; settings: 72 hours' incubation, cell viability vs 0.5% DMSO control; for pIC50: HL-60, 72 h, read-out: EC50 HL-60
# Text: as §1, §2
# MCF-7 = assay: Cytotoxicity test (ViaLight Plus cell proliferation) on MCF-7; settings: 72 hours' incubation, cell viability vs 0.5% DMSO control; for pIC50: Homo sapiens, MCF7, 72 h, read-out: EC50 MCF-7
# Text: as §1, §2
# HL-60/R10 = assay: Cytotoxicity test (ViaLight Plus cell proliferation) on HL-60/R10; settings: doxorubicin-resistant line, 72 hours' incubation, cell viability vs 0.5% DMSO control, read-out: EC50 HL60/R10; for pIC50: HL-60, 72 h
# Text: as §1, §2
SMILES,pEC50 (MCF-7/adr),pIC50 (HL-60; Homo sapiens),pIC50 (MCF-7),pEC50 (HL-60/R10),pEC50 (HL-60),pEC50 (MCF-7),pIC50 (MCF-7/adr),pIC50 (HL-60/R10; Homo sapiens),"pEC50 (HL-60; Homo sapiens, HL-60)","pEC50 (HL-60/R10; Homo sapiens, HL-60)"
"Cc1cc(Oc2ccccc2)ccc1N(C(=O)CCl)C(C(=O)N1CCN[C@H](C(C)C)C1)c1ccc(F)cc1 (single isomer, unassigned) [I-8 dia1]",6.83,5.69,5.76,7.27,,,,,,
"Cc1cc(Oc2ccccc2)ccc1N(C(=O)CCl)C(C(=O)N1CCN[C@H](C(C)C)C1)c1ccc(F)cc1 (single isomer, unassigned) [I-8 dia2]",6.32,,,6.51,5.76,5.62,,,,
"CC[C@@H]1CN(C(=O)C(c2ccc(F)cc2)N(C(=O)CCl)c2ccc(Oc3ccccc3)cc2)CCN1C(=O)OC(C)(C)C (single isomer, unassigned; dia1) [I-20 dia1]",7.14,,,7.10,6.71,5.80,,,,
"C[C@H]1CN(C(=O)C(c2ccc(F)cc2)N(C(=O)CCl)c2ccc(Oc3ccccc3)cc2)CCN1 (single isomer, unassigned; dia1) [I-21 dia1]",7.03,,,7.89,5.61,5.71,,,,
"C[C@@H]1CN(C(=O)C(c2ccc(F)cc2)N(C(=O)CCl)c2ccc(Oc3ccccc3)cc2)CCN1 (single isomer, unassigned; dia1) [I-22 dia1]",6.88,,,7.77,5.70,6.24,,,,
"Cc1cc(OC(C)C)ccc1N(C(=O)CCl)C(C(=O)N1CCN[C@@H](C(C)C)C1)c1ccc(F)cc1 (single isomer, unassigned; dia1) [I-26 dia1]",7.03,,,7.89,5.61,5.71,,,,
"Cc1cc(OC(F)(F)F)ccc1N(C(=O)CCl)C(C(=O)N1CCN[C@@H](C(C)C)C1)c1ccc(F)cc1 (single isomer, unassigned; dia1) [I-27 dia1]",6.88,,,7.77,5.70,6.24,,,,
"Cc1cc(Oc2ccccc2)ccc1N(C(=O)CCl)C(C(=O)N1CCN(C(=O)OC(C)(C)C)C(C(=O)NCc2ccccc2)C1)c1cccs1 (single isomer, unassigned; dia1) [I-53 dia1]",6.34,,,6.19,5.70,5.69,,,,
"CC[C@H]1CN(C(=O)C(c2ccc(F)cc2)N(C(=O)CCl)c2ccc(Oc3ccccc3)cc2C)CCN1 (single isomer, unassigned; dia2) [I-17 dia2]",6.82,,,7.31,5.79,5.70,,,,
"CC[C@@H]1CN(C(=O)C(c2ccc(F)cc2)N(C(=O)CCl)c2ccc(Oc3ccccc3)cc2C)CCN1 (single isomer, unassigned; dia2) [I-18 dia2]",6.82,,,7.36,6.45,6.23,,,,
"C[C@H]1CN(C(=O)C(c2ccc(F)cc2)N(C(=O)CCl)c2ccc(Oc3ccccc3)cc2)CCN1 (single isomer, unassigned; dia2) [I-21 dia2]",8.00,,,8.10,6.20,6.06,,,,
"C[C@@H]1CN(C(=O)C(c2ccc(F)cc2)N(C(=O)CCl)c2ccc(Oc3ccccc3)cc2)CCN1 (single isomer, unassigned; dia2) [I-22 dia2]",7.47,,,7.74,5.94,6.37,,,,
"Cc1cc(OC(C)C)ccc1N(C(=O)CCl)C(C(=O)N1CCN[C@@H](C(C)C)C1)c1ccc(F)cc1 (single isomer, unassigned; dia2) [I-26 dia2]",8.00,,,8.10,6.20,6.06,,,,
"Cc1cc(OC(F)(F)F)ccc1N(C(=O)CCl)C(C(=O)N1CCN[C@@H](C(C)C)C1)c1ccc(F)cc1 (single isomer, unassigned; dia2) [I-27 dia2]",7.47,,,7.74,5.94,6.37,,,,
Cc1cc(Oc2ccccc2)ccc1N(C(=O)CCl)C(C(=O)N1CCN(C(=O)OC(C)(C)C)[C@@H](C)C1)c1ccc(F)cc1 (some centres unmarked) [Example I-9],,6.11,5.60,,,,6.97,7.00,,
Cc1cc(Oc2ccccc2)ccc1N(C(=O)CCl)C(C(=O)N1C[C@@H](C)N(C(=O)OC(C)(C)C)[C@@H](C)C1)c1ccc(F)cc1 (some centres unmarked) [Example I-10],,6.19,5.60,,,,6.82,6.88,,
Cc1cc(Oc2ccccc2)ccc1N(C(=O)CCl)C(C(=O)N1CCN(C(=O)OC(C)(C)C)[C@H](C)C1)c1ccc(F)cc1 (some centres unmarked) [Example I-11],,6.03,5.60,,,,6.99,7.17,,
Cc1cc(Oc2ccccc2)ccc1N(C(=O)CCl)C(C(=O)N1CCN[C@@H](C)C1)c1ccc(F)cc1 (some centres unmarked) [Example I-12],,5.63,5.75,,,,6.38,7.09,5.63,7.09
Cc1cc(Oc2ccccc2)ccc1N(C(=O)CCl)C(C(=O)N1CCN[C@H](C)C1)c1ccc(F)cc1 (some centres unmarked) [Example I-13],,5.70,5.60,,,,6.27,7.06,5.70,7.06
Cc1cc(Oc2ccccc2)ccc1N(C(=O)CCl)C(C(=O)N1C[C@@H](C)N[C@@H](C)C1)c1ccc(F)cc1 (some centres unmarked) [Example I-14],,5.73,5.60,,,,6.63,7.02,5.73,7.02
CC1CN(C(=O)C(c2cccs2)N(C(=O)CCl)c2cccc(C(F)(F)F)c2)CC(C)N1C(=O)OCc1ccccc1 (centres unmarked) [Example I-29],,6.03,5.99,,,,7.27,7.42,,
CC1CN(C(=O)C(c2cccs2)N(C(=O)CCl)c2ccc(Oc3ccccc3)cc2)CC(C)N1 (centres unmarked) [Example I-30],,6.69,6.00,,,,7.36,8.00,,
CC1CN(C(=O)C(c2cccs2)N(C(=O)CCl)c2ccc(Oc3ccccc3)cc2)CC(C)N1C(=O)OCc1ccccc1 (centres unmarked) [Example I-31],,6.12,5.60,,,,7.05,7.19,,
CC1CN(C(=O)C(c2cccs2)N(C(=O)CCl)c2ccc(Oc3ccccc3)cc2)CC(C)N1C(=O)OC(C)(C)C (centres unmarked) [Example I-32],,6.76,5.60,,,,7.24,7.11,,
O=C(C(c1cccs1)N(C(=O)CCl)c1ccc(Oc2ccccc2)cc1)N1CCN2CCC[C@H]2C1 (some centres unmarked) [Example I-34],,5.95,5.75,,,,7.00,7.52,,
O=C(C(c1cccs1)N(C(=O)CCl)c1ccc(Oc2ccccc2)cc1)N1CC2CC1CN2 (centres unmarked) [Example I-35],,6.52,6.20,,,,6.06,6.60,,
C[C@@H]1CN(C(=O)C(c2cccs2)N(C(=O)CCl)c2ccc(Oc3ccccc3)cc2)CCN1C(=O)OCc1ccccc1 (some centres unmarked) [Example I-36],,6.43,5.60,,,,7.62,7.55,,
Cc1cc(Oc2ccccc2)ccc1N(C(=O)CCl)C(C(=O)N1CCN(C(=O)OCc2ccccc2)[C@H](C)C1)c1cccs1 (some centres unmarked) [Example I-37],,6.01,5.60,,,,6.81,6.81,,
Cc1c(N(C(=O)CCl)C(C(=O)N2C[C@@H](C)N[C@@H](C)C2)c2cccs2)cccc1C(F)(F)F (some centres unmarked) [Example I-38],,5.60,5.60,,,,6.07,6.72,,
